Consider 2 compounds from publication PMC8552062, “Contributions of UDP-Glucuronosyltransferases to Human Hepatic and Intestinal Metabolism of Ticagrelor and Inhibition of UGTs and Cytochrome P450 Enzymes by Ticagrelor and its Glucuronidated Metabolite” (Frontiers in Pharmacology, 2021).

One series deals with T1, CYP2B6 (Homo sapiens, UniProt P20813).
T1 construct: co-incubation ticagrelor-O-Glu with selective P450 probe substrates in HLM; tissue XenoTech LLC; host or cells: pooled human liver microsomes
T1 sequence (P20813 1-491): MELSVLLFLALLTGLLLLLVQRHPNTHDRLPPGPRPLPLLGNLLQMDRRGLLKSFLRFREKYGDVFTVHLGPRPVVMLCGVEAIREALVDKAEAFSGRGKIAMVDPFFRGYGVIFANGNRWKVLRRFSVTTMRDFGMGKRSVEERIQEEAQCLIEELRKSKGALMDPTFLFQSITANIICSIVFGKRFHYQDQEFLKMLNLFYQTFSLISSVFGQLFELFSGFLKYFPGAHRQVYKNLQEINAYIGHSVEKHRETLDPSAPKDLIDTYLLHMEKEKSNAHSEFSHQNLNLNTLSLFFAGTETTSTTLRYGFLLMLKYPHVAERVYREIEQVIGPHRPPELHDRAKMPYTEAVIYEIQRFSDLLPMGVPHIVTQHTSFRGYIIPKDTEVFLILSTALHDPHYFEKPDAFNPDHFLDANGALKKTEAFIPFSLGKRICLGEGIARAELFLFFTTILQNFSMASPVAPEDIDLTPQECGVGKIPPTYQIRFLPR
In words: CYP2B6 inhibition in HLM (bupropion hydroxylase). The format is in vitro ADME. Here is the method: The potential inhibitory effects of ticagrelor-O-Glu on the activities of major CYPs, i.e., CYP2B6, CYP2C8, CYP2C9, CYP2C19, CYP2D6, and CYP3A4, were evaluated by co-incubation ticagrelor-O-Glu with selective P450 probe substrates in HLM. Each incubation mixture containing 0.2 mg/ml HLM, ticagrelor-O-Glu and respective substrate (the final substrate concentrations are close to or less than the Km values: 150 μM bupropion, 1.26 μM amodiaquine, 10 μM diclofenac, 20 μM mephenytoin, 20 μM dextromethorphan and 80 μM testosterone (in house data)) in potassium phosphate buffer (100 mM, pH 7.4) was pre-incubated at 37°C for 5 min. Then, NADPH (10 mM) was added to initiate the reaction. The final volume of the incubation mixture was 100 μl. After incubation at 37°C for specific time points, the reaction was terminated by the addition of 200 μl of ice-cold methanol solution with internal standards (diazepam and furafylline). Preliminary screening experiments with selected concentrations of ticagrelor-O-Glu (0, 1, 10, or 100 μM of the final concentration) were carried out to determine the inhibition potency. For those that produced approximately 50% inhibition of CYPs enzyme activities at a ticagrelor-O-Glu concentration between 1 and 100 μM, IC50 was further determined with various concentrations of ticagrelor-O-Glu (0, 1, 5, 10, 20, 50, and 100 μM). All the experiments were performed in triplicates. The supernatant was obtained after centrifugation at 14,000 rpm for 10 min and injected into LC-MS/MS for the analysis of the respective metabolites. The formation of respective metabolites was determined to reflect P450 isoform activities. The metabolites quantified for CYP2B6, CYP2C8, CYP2C9, CYP2C19, CYP2D6, and CYP3A4 were hydroxy bupropion, N-Desethyl amodiaquine, 4′-hydroxylation diclofenac, S-4-hydroxy mephenytoin, dextrorphan and 6β-hydroxy testosterone, respectively.
The percent inhibition relative to the control was calculated to indicate the UGTs or CYPs inhibition. […]

A further series has as its target T2, recombinant human UGT2B4 (Homo sapiens, UniProt P06133).
T2 construct: purchased BD Gentest; host or cells: baculovirus-infected insect cells
In words: Ticagrelor glucuronidation screen, recombinant human UGT2B4. The format is in vitro ADME. The conditions noted are these: 10 μM ticagrelor. Here is the method:
Ticagrelor glucuronidation was investigated in an in vitro incubation system by using HLM, HIM, and recombinant human UGTs. The incubation system consisted of enzyme sources (HLM, HIM, or human recombinant UGTs), various concentrations of ticagrelor (dissolved in 50% methanol, 1% v/v, 1, 2, 5, 10, 20, 50, 100, 200, 500 μM of final concentration), alamethicin (50 μg/mg protein), 5 mM MgCl2, 100 mM tris-HCL buffer (pH 7.4), and 5 mM UDPGA in a total volume of 100 μl. Alamethicin is a pore-forming polypeptide used to activate UGTs in HLM and HIM ([Fisher et al., 2000]). Preliminary studies were conducted to determine the optimal protein concentrations and incubation times. Linear conditions of ticagrelor-O-Glu formation from ticagrelor, i.e., HLM, 0.2 mg of protein/ml and 60 min, HIM, 0.2 mg of protein/ml and 60 min, and recombinant human UGTs, 0.2 mg of protein/ml and 60 min were selected. The incubation mixture without UDPGA was placed on ice for 15 min to activate UGT by alamethicin. After pre-incubation for 5 min at 37°C, the reactions were started by the addition of UDPGA. After another 60 min of incubation at 37°C, the reaction was terminated by adding 100 μl of acetonitrile containing internal standard (diazepam). The mixture vortexed for 2 min and then centrifuged at 14,000 rpm for 10 min at 4°C. […]

On the set-up of series [1]: method as in Husted et al., 2006. The conditions noted are these: humans, 100 mg b.i.d.; ref Husted et al., 2006; cited from earlier work.

Each structure is given as a SMILES string.

T2 sequence (P06133 24-528): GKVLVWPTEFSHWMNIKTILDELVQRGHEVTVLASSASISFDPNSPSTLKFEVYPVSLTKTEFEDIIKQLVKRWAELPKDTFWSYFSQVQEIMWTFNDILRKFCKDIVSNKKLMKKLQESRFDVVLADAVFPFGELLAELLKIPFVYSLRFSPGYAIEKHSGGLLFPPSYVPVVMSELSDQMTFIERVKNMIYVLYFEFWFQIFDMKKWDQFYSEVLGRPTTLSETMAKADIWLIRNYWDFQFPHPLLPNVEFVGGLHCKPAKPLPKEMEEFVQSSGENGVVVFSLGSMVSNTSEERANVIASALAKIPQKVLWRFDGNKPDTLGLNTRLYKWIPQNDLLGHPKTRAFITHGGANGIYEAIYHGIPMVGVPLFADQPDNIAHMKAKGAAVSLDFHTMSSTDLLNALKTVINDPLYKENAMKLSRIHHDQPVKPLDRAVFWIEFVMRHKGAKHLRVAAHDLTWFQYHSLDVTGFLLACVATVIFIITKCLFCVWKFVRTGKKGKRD

By IC50 is commonly meant the midpoint of a concentration-inhibition curve. Read a high IC50 as weaker potency in that assay. Broadly, the inhibition is the drop in the measured response relative to a control, in per cent. Take `CCCSc1nc(N[C@@H]2C[C@H]2c2ccc(F)c(F)c2)c2nnn([C@@H]3C[C@H](OCCO[C@@H]4O[C@H](C(=O)O)[C@@H](O)[C@H](O)[C@H]4O)[C@@H](O)[C@H]3O)c2n1` [Ticagrelor-O-Glu, ticagrelor-O-glucuronide]: on CYP2B6 (CYP2B6, bupropion hydroxylase, HLM 0.2 mg/ml), the IC50 turned out to be 45 µM. At CYP2B6 (human, human liver microsomes, pH 7.4, probe bupropion (150 μM), hydroxy bupropion formation, HLM, 10 μM ticagrelor-O-Glu), this compound returned an inhibition at 10 μM of 19.1%. Also, the inhibition at 100 µM at CYP2B6 (human, human liver microsomes, pH 7.4, probe bupropion (150 μM), hydroxy bupropion formation, HLM, 100 μM ticagrelor-O-Glu) was determined as 77.9%.
With `CCCSc1nc(N[C@@H]2C[C@H]2c2ccc(F)c(F)c2)c2nnn([C@@H]3C[C@H](OCCO)[C@@H](O)[C@H]3O)c2n1` [Ticagrelor], on recombinant human UGT2B4, the “glucuronidation activity for ticagrelor” value is reported as “no glucuronidation activities”. Also, the “steady-state maximal plasma concentration (Cmax)” value in series [1] was 810 ng/mL.
